Measurements from publication PMC7946891, “Versatility in acyltransferase activity completes chicoric acid biosynthesis in purple coneflower” (Nature Communications, 2021).

Target: T1, EpHCT (Echinacea purpurea, UniProt A0A890VVY1)
T1 construct: full-length CDS, N-terminal 6xHis (pDEST17), E. coli BL21(DE3), Ni-NTA purified
Test: in vitro enzyme assay, LC-HRMS product detection
Assay type: biochemical

T1 sequence (A0A890VVY1 1-434): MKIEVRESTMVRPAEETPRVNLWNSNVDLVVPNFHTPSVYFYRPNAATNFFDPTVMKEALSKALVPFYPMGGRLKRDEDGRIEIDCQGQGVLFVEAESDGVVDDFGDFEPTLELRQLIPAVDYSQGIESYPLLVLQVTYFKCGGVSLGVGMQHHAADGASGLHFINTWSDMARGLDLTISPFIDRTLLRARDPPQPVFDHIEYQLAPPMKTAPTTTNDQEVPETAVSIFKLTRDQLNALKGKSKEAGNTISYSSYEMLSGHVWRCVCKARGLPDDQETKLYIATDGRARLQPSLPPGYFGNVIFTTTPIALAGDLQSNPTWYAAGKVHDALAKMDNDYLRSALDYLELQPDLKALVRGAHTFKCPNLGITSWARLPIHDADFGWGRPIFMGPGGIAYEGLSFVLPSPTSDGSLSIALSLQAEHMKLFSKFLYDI

O=C(O)C1=C[C@@H](O)[C@@H](O)[C@H](O)C1 [shikimic acid]
in vitro enzyme assay, LC-HRMS product detection (p-coumaroyl CoA or caffeoyl CoA as acyl donor): production of p-coumaroyl shikimic acid using p-coumaroyl CoA and shikimic acid as substrates

CC(C)(COP(=O)(O)OP(=O)(O)OC[C@H]1O[C@@H](n2cnc3c(N)ncnc32)[C@H](O)[C@@H]1OP(=O)(O)O)[C@@H](O)C(=O)NCCC(=O)NCCSC(=O)/C=C/c1ccc(O)cc1 [p-coumaroyl CoA]
in vitro enzyme assay, LC-HRMS product detection (shikimic acid as acyl acceptor): production of p-coumaroyl shikimic acid using p-coumaroyl CoA and shikimic acid as substrates
